From patent publication US20240376048A1 (Celgene Corporation, priority 2021, published 2024) come the findings set out here.

S1P5, sequence (Q9H228 whole entry, species assumed): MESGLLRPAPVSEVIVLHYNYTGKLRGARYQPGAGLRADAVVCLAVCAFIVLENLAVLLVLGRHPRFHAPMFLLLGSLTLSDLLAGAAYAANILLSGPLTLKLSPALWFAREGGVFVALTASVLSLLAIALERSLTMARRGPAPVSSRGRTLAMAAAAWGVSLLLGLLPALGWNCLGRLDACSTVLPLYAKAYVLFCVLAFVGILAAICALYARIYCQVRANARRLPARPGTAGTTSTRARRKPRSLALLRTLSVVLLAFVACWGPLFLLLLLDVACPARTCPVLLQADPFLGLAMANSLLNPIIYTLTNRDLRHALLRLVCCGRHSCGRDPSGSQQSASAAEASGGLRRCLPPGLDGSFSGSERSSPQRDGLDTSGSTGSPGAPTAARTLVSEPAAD

This assay addresses S1P5 (Homo sapiens, UniProt Q9H228). The experiment in a line: [35S]-GTPγS binding assay (S1P5 agonism), CHO cell membranes. As to conditions: membranes of CHO cells expressing recombinant S1P5 receptors, measure of S1P5 agonism. In kind it is biochemical. The procedure: CHO cells expressing recombinant S1P5 receptors were cultured in 500 cm^2 culture trays and, once confluent, rinsed and detached with cell-lifting buffer (10 mM HEPES, 154 mM NaCl, 6.85 mM EDTA, pH 7.4). Cells were then pelleted by centrifugation, resuspended, and homogenized in membrane preparation buffer (10 mM HEPES and 10 mM EDTA, pH 7.4) using a Polytron PT 1200E homogenizer (Kinematica, Luzern, Switzerland). Cellular proteins were pelleted by centrifugation at 48,000×g at 4° C. for 30 minutes. The resulting supernatant was discarded, and the pellet was re-suspended again in membrane preparation buffer, homogenized for a second time, and then centrifuged again as described above. The final cellular protein pellet was suspended in ice cold resuspension buffer (10 mM HEPES and 0.1 mM EDTA, pH 7.4), divided into aliquots, and stored at −80° C. until use.
Functional binding assays for [^35S]-GTPγS were performed in 96-well non-binding surface plates with a final volume of 200 μL. The test compounds were serially diluted in DMSO and added to assay plates using a Tecan D300E digital printer with a total volume of […]. The control sphingosine-1-phosphate (S1P) was prepared separately by preparing a 400 μM stock solution from a 100 nmol pellet of S1P in 10 mM Na2CO3 with 2% […]. The serial dilution of S1P was done using complete assay buffer (20 mM HEPES, 10 mM MgCl2, 100 mM NaCl, 1 mM EDTA, 0.1% fatty acid free bovine serum albumin (BSA), and 30 μg/mL saponin, pH 7.4) and transferred to wells already containing 0.4 μL DMSO. All the wells were then loaded to a total volume of 40 μL of complete assay buffer, except the non-specific binding (NSB) wells. For NSB wells, 40 μL/well of 50 μM GTPγS (Sigma Aldrich, cat #G8634, St. Louis, MO) was added to wells containing 0.4 μL of DMSO. The assay was started by the addition of 120 μL/well of CHO-SlP receptor membrane solution containing 40 μg/mL of membrane protein, 16.67 μM guanosine diphosphate (GDP; Sigma Aldrich, cat #G7127, St. Louis, MO), and 2.5 mg/mL of WGA PVT SPA beads in complete buffer. Assay plates were then sealed and incubated at room temperature with gentle agitation for 30 minutes. Next, 40 µL/well of 1 nM of [^35S]-GTPγS (PerkinElmer, cat #NEG030X25OUC, Waltham, MA) in basic assay buffer (20 mM HEPES, 10 mM MgCl2, 100 mM NaCl, and 1 mM EDTA, pH7.4) was added to the assay plates to yield a final concentration of 200 pM and the plates were further incubated for 40 minutes at room temperature with gentle agitation. The assay was terminated by centrifugation of the plates at 1000 rpm for 3 minutes using an Eppendorf 5810R centrifuge (Eppendorf, Hamburg, Germany) and G protein bound radioactivity was quantitated using a MicroBeta2 microplate scintillation counter (PerkinElmer, Waltham, MA). As G protein bound radioactivity directly correlates to receptor activation and coupling to the G protein, this assay is a measure of S1P5 agonism.
As for `O=C(O)[C@H]1CCN(C2CCc3cc(OCc4c(Cl)cccc4Cl)ccc32)C1` (single isomer, unassigned) [Compound 24a], the EC50 fell in the range of 10 to 100 nM.

As for `O=C(O)[C@H]1CCN(C2CCc3cc(OCc4c(Cl)cccc4Cl)ccc32)C1` (single isomer, unassigned) [Compound 24b], the concentration giving a half-maximal response (EC50) was in the range of 1 to 10 nM.

As for `O=C(O)[C@@H]1CCN(C2CCc3cc(OCc4c(Cl)cccc4Cl)ccc32)C1` (single isomer, unassigned) [Compound 25a], the EC50 fell in the range of 1 to 10 nM.

As for `O=C(O)[C@@H]1CCN(C2CCc3cc(OCc4c(Cl)cccc4Cl)ccc32)C1` (single isomer, unassigned) [Compound 25b], the EC50 lay within 1 to 10 nM.

For `O=C(O)C1CCN(C2CCc3cc(OCc4cccc(C(F)(F)F)c4)ccc32)CC1` (single isomer, unassigned) [Compound 26a, 1-(5-((3-(trifluoromethyl)benzyl)oxy)-2,3-dihydro-1H-inden-1-yl)piperidine-4-carboxylic acid], the EC50 lay in the range of 10 to 100 nM.

In the case of `O=C(O)C1CCN(C2CCc3cc(OCc4cccc(C(F)(F)F)c4)ccc32)CC1` (single isomer, unassigned) [Compound 26b, 1-(5-((3-(trifluoromethyl)benzyl)oxy)-2,3-dihydro-1H-inden-1-yl)piperidine-4-carboxylic acid], the EC50 is 100 to 1000 nM.

As to `Cc1ccc(COc2ccc3c(c2)CCC3N2CC(C(=O)O)C2)cc1Cl` (stereo not shown) [Compound 1, 1-(5-((3-chloro-4-methylbenzyl)oxy)-2,3-dihydro-1H-inden-1-yl)azetidine-3-carboxylic acid], the 50% effective concentration (EC50) was 1 to 10 nM.

`Cc1ccc(COc2ccc3c(c2)CCC3N2CC(C(=O)O)C2)cc1C(F)(F)F` (stereo not shown) [Compound 2, 1-(5-((4-methyl-3-(trifluoromethyl)benzyl)oxy)-2,3-dihydro-1H-inden-1-yl)azetidine-3-carboxylic acid]: the EC50 is 10 to 100 nM.

For `Cc1ccc(COc2ccc3c(c2)CCC3N2CC(C(=O)O)C2)c(Cl)c1` (stereo not shown) [Compound 3, 1-(5-((2-chloro-4-methylbenzyl)oxy)-2,3-dihydro-1H-inden-1-yl)azetidine-3-carboxylic acid], the 50% effective concentration (EC50) lay within 1 to 10 nM.

`Cc1ccc(COc2ccc3c(c2)CCC3N2CC(C(=O)O)C2)c(F)c1` (stereo not shown) [Compound 4, 1-(5-((2-fluoro-4-methylbenzyl)oxy)-2,3-dihydro-1H-inden-1-yl)azetidine-3-carboxylic acid]: the EC50 lay within 10 to 100 nM.

Consider `CC(C)Oc1ccc(COc2ccc3c(c2)CCC3N2CC(C(=O)O)C2)cc1C(F)(F)F` (stereo not shown) [Compound 5, 1-(5-((4-isopropoxy-3-(trifluoromethyl)benzyl)oxy)-2,3-dihydro-1H-inden-1-yl)azetidine-3-carboxylic acid], for which the half-maximal effective concentration (EC50) was in the range of 1 to 10 nM.

Regarding `CC(C)Oc1ccc(COc2ccc3c(c2)CCC3N2CC(C(=O)O)C2)cc1C#N` (stereo not shown) [Compound 6, 1-(5-((3-cyano-4-isopropoxybenzyl)oxy)-2,3-dihydro-1H-inden-1-yl)azetidine-3-carboxylic acid], the half-maximal effective concentration (EC50) was 10 to 100 nM.

`O=C(O)C1CN(C2CCc3cc(OCc4ccc(C5CC5)cc4F)ccc32)C1` (stereo not shown) [Compound 7, 1-(5-((4-cyclopropyl-2-fluorobenzyl)oxy)-2,3-dihydro-1H-inden-1-yl)azetidine-3-carboxylic acid]: the EC50 was in the range of 10 to 100 nM.

As for `O=C(O)C1CN(C2CCc3cc(OCc4ccc(C5CC5)cc4Cl)ccc32)C1` (stereo not shown) [Compound 8, 1-(5-((2-chloro-4-cyclopropylbenzyl)oxy)-2,3-dihydro-1H-inden-1-yl)azetidine-3-carboxylic acid], the half-maximal effective concentration (EC50) fell in the range of 10 to 100 nM.

Take `O=C(O)C1CN(C2CCc3cc(OCc4ccc(C5CC5)c(C(F)(F)F)c4)ccc32)C1` (stereo not shown) [Compound 9, 1-(5-((4-cyclopropyl-3-(trifluoromethyl)benzyl)oxy)-2,3-dihydro-1H-inden-1-yl)azetidine-3-carboxylic acid]: the 50% effective concentration (EC50) fell in the range of 1 to 10 nM.

Take `O=C(O)C1CN(C2CCc3cc(OCc4ccc(C5CC5)c(Cl)c4)ccc32)C1` (stereo not shown) [Compound 10, 1-(5-((3-chloro-4-cyclopropylbenzyl)oxy)-2,3-dihydro-1H-inden-1-yl)azetidine-3-carboxylic acid]: the EC50 was 10 to 100 nM.

With `O=C(O)C1CN(C2CCc3cc(OCc4ccccc4F)ccc32)C1` (stereo not shown) [Compound 11, 1-(5-((2-fluorobenzyl)oxy)-2,3-dihydro-1H-inden-1-yl)azetidine-3-carboxylic acid], the EC50 lay within 10 to 100 nM.

Consider `O=C(O)C1CN(C2CCc3cc(OCc4cccc(F)c4)ccc32)C1` (stereo not shown) [Compound 12, 1-(5-((3-fluorobenzyl)oxy)-2,3-dihydro-1H-inden-1-yl)azetidine-3-carboxylic acid], for which the EC50 was in the range of 10 to 100 nM.

As to `O=C(O)C1CN(C2CCc3cc(OCc4ccc(F)cc4)ccc32)C1` (stereo not shown) [Compound 13, 1-(5-((4-fluorobenzyl)oxy)-2,3-dihydro-1H-inden-1-yl)azetidine-3-carboxylic acid], the EC50 lay within 10 to 100 nM.

As for `O=C(O)C1CN(C2CCc3cc(OCc4ccc(F)cc4F)ccc32)C1` (stereo not shown) [Compound 14, 1-(5-((2,4-difluorobenzyl)oxy)-2,3-dihydro-1H-inden-1-yl)azetidine-3-carboxylic acid], the EC50 is 10 to 100 nM.

Take `O=C(O)C1CN(C2CCc3cc(OCc4cc(F)ccc4F)ccc32)C1` (stereo not shown) [Compound 15, 1-(5-((2,5-difluorobenzyl)oxy)-2,3-dihydro-1H-inden-1-yl)azetidine-3-carboxylic acid]: the EC50 is 10 to 100 nM.

For `O=C(O)C1CN(C2CCc3cc(OCc4ccc(F)c(Cl)c4)ccc32)C1` (stereo not shown) [Compound 16, 1-(5-((3-chloro-4-fluorobenzyl)oxy)-2,3-dihydro-1H-inden-1-yl)azetidine-3-carboxylic acid], the concentration for a half-maximal effect (EC50) lay in the range of 10 to 100 nM.

On to `O=C(O)C1CN(C2CCc3cc(OCc4cc(F)c(F)cc4F)ccc32)C1` (stereo not shown) [Compound 17, 1-(5-((2,4,5-trifluorobenzyl)oxy)-2,3-dihydro-1H-inden-1-yl)azetidine-3-carboxylic acid], for which the half-maximal effective concentration (EC50) was in the range of 1 to 10 nM.

As for `O=C(O)C1CN(C2CCc3cc(OCc4cc(F)cc(F)c4F)ccc32)C1` (stereo not shown) [Compound 18, 1-(5-((2,3,5-trifluorobenzyl)oxy)-2,3-dihydro-1H-inden-1-yl)azetidine-3-carboxylic acid], the 50% effective concentration (EC50) fell in the range of 10 to 100 nM.

As to `O=C(O)C1CN(C2CCc3cc(OCc4ccc(F)c(F)c4)ccc32)C1` (stereo not shown) [Compound 19, 1-(5-((3,4-difluorobenzyl)oxy)-2,3-dihydro-1H-inden-1-yl)azetidine-3-carboxylic acid], the half-maximal effective concentration (EC50) lay within 10 to 100 nM.

In the case of `O=C(O)C1CN(C2CCc3cc(OCc4cccc(I)c4)ccc32)C1` (stereo not shown) [Compound 20, 1-(5-((3-iodobenzyl)oxy)-2,3-dihydro-1H-inden-1-yl)azetidine-3-carboxylic acid], the EC50 was 10 to 100 nM.

In the case of `O=C(O)C1CN(C2CCc3cc(OCc4ccc(I)cc4)ccc32)C1` (stereo not shown) [Compound 21, 1-(5-((4-iodobenzyl)oxy)-2,3-dihydro-1H-inden-1-yl)azetidine-3-carboxylic acid], the EC50 is 100 to 1000 nM.

Take `O=C(O)[C@H]1[C@@H]2CN(C3CCc4cc(OCc5c(Cl)cccc5Cl)ccc43)C[C@@H]21` (stereo partly drawn) [Compound 22, (1R,5S,6r)-3-(5-((2,6-dichlorobenzyl)oxy)-2,3-dihydro-1H-inden-1-yl)-3-azabicyclo[3.1.0]hexane-6-carboxylic acid]: the half-maximal effective concentration (EC50) is 100 to 1000 nM.
